Experiment [1] has as its target T1, Recombinant purified human BTK (Homo sapiens, UniProt Q06187).
T1 construct: purchased Promega V9071
Put plainly: BTK kinase inhibitory activity, ADP-Glo kinase assay (Promega V9071). It counts as biochemical. Conditions: ATP 10 uM, 8 ng BTK per reaction, 1 hour 30 °C, chemiluminescence. In outline:
(§1)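 Recombinant human kinases in Tris pH 7.5 buffer with MgCl2, BSA and DTT (MnCl2 added for BTK), 4 ng JAK3 or 8 ng BTK per reaction. Poly(Glu4,Tyr1) 0.2 µg/µL with 5 µM (JAK3) or 10 µM (BTK) ATP, 1% DMSO, 1 h at 30 °C. ADP-Glo luminescence used to derive IC50.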
Background: ADP-Glo turns the ADP formed in a reaction into a luminescent signal.

In experiment [2] the target is T2, Recombinant purified human JAK3 (Homo sapiens, UniProt P52333).
T2 construct: purchased Promega V9441
T2 sequence (P52333 1-1124): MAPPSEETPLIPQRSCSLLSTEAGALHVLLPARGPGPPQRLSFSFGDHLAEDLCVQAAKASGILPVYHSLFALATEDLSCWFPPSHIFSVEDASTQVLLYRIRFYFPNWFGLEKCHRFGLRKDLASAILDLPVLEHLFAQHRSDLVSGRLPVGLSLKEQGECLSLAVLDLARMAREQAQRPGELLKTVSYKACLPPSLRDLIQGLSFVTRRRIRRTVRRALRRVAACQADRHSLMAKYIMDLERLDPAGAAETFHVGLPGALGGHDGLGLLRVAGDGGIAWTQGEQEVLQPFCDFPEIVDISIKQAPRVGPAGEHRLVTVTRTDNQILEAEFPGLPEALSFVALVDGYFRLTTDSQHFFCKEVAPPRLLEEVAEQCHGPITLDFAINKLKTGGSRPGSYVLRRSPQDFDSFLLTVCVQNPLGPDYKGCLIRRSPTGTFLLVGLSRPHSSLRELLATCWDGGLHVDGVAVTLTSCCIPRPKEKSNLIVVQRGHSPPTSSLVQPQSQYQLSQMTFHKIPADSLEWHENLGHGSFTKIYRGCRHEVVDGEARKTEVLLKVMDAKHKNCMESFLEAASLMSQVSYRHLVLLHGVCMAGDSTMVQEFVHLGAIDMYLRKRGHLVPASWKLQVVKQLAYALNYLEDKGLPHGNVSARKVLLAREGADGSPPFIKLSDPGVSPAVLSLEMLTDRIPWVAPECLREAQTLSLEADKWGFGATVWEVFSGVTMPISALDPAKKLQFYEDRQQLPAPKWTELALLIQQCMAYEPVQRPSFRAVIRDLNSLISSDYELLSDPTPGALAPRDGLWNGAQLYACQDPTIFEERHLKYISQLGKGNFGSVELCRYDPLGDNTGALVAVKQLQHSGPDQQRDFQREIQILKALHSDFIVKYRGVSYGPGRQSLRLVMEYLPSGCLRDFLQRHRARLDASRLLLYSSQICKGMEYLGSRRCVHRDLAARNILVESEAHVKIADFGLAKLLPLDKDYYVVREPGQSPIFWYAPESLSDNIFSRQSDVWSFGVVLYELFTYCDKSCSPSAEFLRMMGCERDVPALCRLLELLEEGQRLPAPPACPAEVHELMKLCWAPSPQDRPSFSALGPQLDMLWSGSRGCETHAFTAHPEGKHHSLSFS
Put plainly: JAK3 kinase inhibitory activity, ADP-Glo kinase assay (Promega V9441). It counts as biochemical. Conditions: ATP 5 uM, 4 ng JAK3 per reaction, 1 hour 30 °C, chemiluminescence. The essentials:
as §1

T1 sequence (Q06187 whole entry): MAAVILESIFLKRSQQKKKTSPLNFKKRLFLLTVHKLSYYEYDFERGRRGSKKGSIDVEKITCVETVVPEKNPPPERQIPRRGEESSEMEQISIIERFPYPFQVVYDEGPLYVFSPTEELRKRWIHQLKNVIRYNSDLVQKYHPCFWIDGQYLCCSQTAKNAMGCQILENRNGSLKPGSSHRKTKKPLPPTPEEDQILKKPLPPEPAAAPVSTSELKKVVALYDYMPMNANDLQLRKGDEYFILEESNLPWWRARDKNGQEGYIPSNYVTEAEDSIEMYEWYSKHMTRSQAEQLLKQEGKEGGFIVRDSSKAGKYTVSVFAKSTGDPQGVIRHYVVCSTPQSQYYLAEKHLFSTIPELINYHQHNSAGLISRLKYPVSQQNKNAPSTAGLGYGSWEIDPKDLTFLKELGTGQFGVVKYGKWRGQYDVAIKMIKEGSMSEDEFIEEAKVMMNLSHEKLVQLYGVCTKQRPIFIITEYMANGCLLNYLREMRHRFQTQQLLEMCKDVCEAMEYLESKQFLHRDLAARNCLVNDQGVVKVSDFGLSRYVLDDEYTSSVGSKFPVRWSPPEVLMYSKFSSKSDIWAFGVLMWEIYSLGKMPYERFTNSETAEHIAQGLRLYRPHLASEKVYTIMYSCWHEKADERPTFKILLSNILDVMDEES

In general, IC50 refers to the concentration that gives 50% inhibition. Take `C=CC(=O)N1CC[C@@H](C)[C@@H](N(C)c2nc(Nc3cnn(CC)c3)nc3[nH]nc(Cl)c23)C1` [Example 159]: the half-maximal inhibitory concentration (IC50) in experiment [1] came to 4.5 nM; in experiment [2] it was 27.1 nM.
The corresponding values for `CCn1cc(Nc2nc(N[C@H]3CN(C(=O)/C(C#N)=C/C(C)C)CC[C@H]3F)c3c(Cl)n[nH]c3n2)cn1` [Example 160, (E)-2-((3S,4R)-3-((3-chloro-6-((1-ethyl-1H-pyrazol-4-yl)amino)-1H-pyrazolo[3,4-d]pyrimidin-4-yl)amino)-4-fluoropiperidine-1-carbonyl)-4-methylpent-2-enenitrile] are 3.4 nM and 1.5 nM.
Regarding `CCn1cc(Nc2nc(N[C@H]3CN(C(=O)/C(C#N)=C/C4CC4)CC[C@H]3F)c3c(Cl)n[nH]c3n2)cn1` [Example 161, (E)-2-((3S,4R)-3-((3-chloro-6-((1-ethyl-1H-pyrazol-4-yl)amino)-1H-pyrazolo[3,4-d]pyrimidin-4-yl)amino)-4-fluoropiperidine-1-carbonyl)-3-cyclopropylacrylonitrile], the 50% inhibitory concentration (IC50) in experiment [1] amounted to 1.3 nM; in experiment [2] it was 5 nM.
The corresponding values for `CC(C)/C=C(\C#N)C(=O)N1CCC[C@@H](Nc2nc(Nc3cnn(C4CC4)c3)nc3[nH]nc(Cl)c23)C1` [Example 162, (R,E)-2-(3-((3-chloro-6-((1-cyclopropyl-1H-pyrazol-4-yl)amino)-1H-pyrazolo[3,4-d]pyrimidin-4-yl)amino)piperidine-1-carbonyl)-4-methylpent-2-enenitrile] are 4.8 nM and 3 nM.
The corresponding values for `CC(C)(C)/C=C(\C#N)C(=O)N1CCC[C@@H](Nc2nc(Nc3cnn(C4CC4)c3)nc3[nH]nc(Cl)c23)C1` [Example 163, (R,E)-2-(3-((3-chloro-6-((1-cyclopropyl-1H-pyrazol-4-yl)amino)-1H-pyrazolo[3,4-d]pyrimidin-4-yl)amino)piperidine-1-carbonyl)-4,4-dimethylpent-2-enenitrile] are 1.2 nM and 2.7 nM.
The corresponding values for `N#C/C(=C\C1CC1)C(=O)N1CCC[C@@H](Nc2nc(Nc3cnn(C4CC4)c3)nc3[nH]nc(Cl)c23)C1` [Example 164, (R,E)-2-(3-((3-chloro-6-((1-cyclopropyl-1H-pyrazol-4-yl)amino)-1H-pyrazolo[3,4-d]pyrimidin-4-yl)amino)piperidine-1-carbonyl)-3-cyclopropylacrylonitrile] are 2.2 nM and 8.8 nM.
For `N#C/C(=C\C1CCCC1)C(=O)N1CCC[C@@H](Nc2nc(Nc3cnn(C4CC4)c3)nc3[nH]nc(Cl)c23)C1` [Example 165, (R,E)-2-(3-((3-chloro-6-((1-cyclopropyl-1H-pyrazol-4-yl)amino)-1H-pyrazolo[3,4-d]pyrimidin-4-yl)amino)piperidine-1-carbonyl)-3-cyclopentylacrylonitrile], the IC50 in experiment [1] amounted to 1.9 nM; in experiment [2], 2.2 nM.
The like results for `CCn1cc(Nc2nc(N[C@@H]3CCCN(C(=O)/C(C#N)=C/C4CC4)C3)c3c(Cl)n[nH]c3n2)cn1` [Example 166] were, in that order, 1.2 nM and 5.6 nM.
Consider `CCn1cc(Nc2nc(N(C)[C@@H]3CCCN(C(=O)/C(C#N)=C/C4CC4)C3)c3c(Cl)n[nH]c3n2)cn1` [Example 167, (R,E)-2-(3-((3-chloro-6-((1-ethyl-1H-pyrazol-4-yl)amino)-1H-pyrazolo[3,4-d]pyrimidin-4-yl)(methyl)amino)piperidine-1-carbonyl)-3-cyclopropylacrylonitrile], for which the values for the concentration for half-maximal inhibition (IC50) in experiment [1] and in experiment [2] were 1.5 nM and 43.1 nM, respectively.
The like results for `CCn1cc(Nc2nc(N(C)[C@@H]3CCCN(C(=O)/C(C#N)=C/C(C)C)C3)c3c(Cl)n[nH]c3n2)cn1` [Example 168] were, in that order, 4.3 nM and 18 nM.
As to `CCn1cc(Nc2nc(N[C@H]3CN(C(=O)/C(C#N)=C/C4CC4)CC[C@H]3C)c3c(Cl)n[nH]c3n2)cn1` [Example 169, (E)-2-((3R,4R)-3-((3-chloro-6-((1-ethyl-1H-pyrazol-4-yl)amino)-1H-pyrazolo[3,4-d]pyrimidin-4-yl)amino)-4-methylpiperidine-1-carbonyl)-3-cyclopropylacrylonitrile], the half-inhibitory concentration (IC50) in experiment [1] is 2.2 nM; in experiment [2], 241 nM.
The like results for `CCn1cc(Nc2nc(N[C@H]3CN(C(=O)/C(C#N)=C/C(C)C)CC[C@H]3C)c3c(Cl)n[nH]c3n2)cn1` [Example 170, (E)-2-((3R,4R)-3-((3-chloro-6-((1-ethyl-1H-pyrazol-4-yl)amino)-1H-pyrazolo[3,4-d]pyrimidin-4-yl)amino)-4-methylpiperidine-1-carbonyl)-4-methylpent-2-enenitrile] were, in that order, 2.9 nM and 11.4 nM.
The like results for `CCn1cc(Nc2nc(N[C@@H]3CCCN(C(=O)/C(C#N)=C/C4CC4)C3)c3cc[nH]c3n2)cn1` [Example 171, (R,E)-3-cyclopropyl-2-(3-((2-((1-ethyl-1H-pyrazol-4-yl)amino)-7H-pyrrolo[2,3-d]pyrimidin-4-yl)amino)piperidine-1-carbonyl)acrylonitrile] were, in that order, 2.2 nM and 0.9 nM.
For the molecule `CCn1cc(Nc2nc(N[C@@H]3CCCN(C(=O)/C(C#N)=C/C(C)C)C3)c3cc[nH]c3n2)cn1` [Example 172, (R,E)-2-(3-((2-((1-ethyl-1H-pyrazol-4-yl)amino)-7H-pyrrolo[2,3-d]pyrimidin-4-yl)amino)piperidine-1-carbonyl)-4-methylpent-2-enenitrile], the IC50 was found to be 1.6 nM in experiment [1] and 0.9 nM in experiment [2].
The corresponding values for `CCn1cc(Nc2nc(S[C@@H]3CCCN(C(=O)/C(C#N)=C/C4CC4)C3)c3cc[nH]c3n2)cn1` [Example 173, (R,E)-3-cyclopropyl-2-(3-((2-((1-ethyl-1H-pyrazol-4-yl)amino)-7H-pyrrolo[2,3-d]pyrimidin-4-yl)thio)piperidine-1-carbonyl)acrylonitrile] are 6 nM and 1 nM.
Consider `CCn1cc(Nc2nc(S[C@@H]3CCCN(C(=O)/C(C#N)=C/C(C)C)C3)c3cc[nH]c3n2)cn1` [Example 174, (R,E)-2-(3-((2-((1-ethyl-1H-pyrazol-4-yl)amino)-7H-pyrrolo[2,3-d]pyrimidin-4-yl)thio)piperidine-1-carbonyl)-4-methylpent-2-enenitrile], for which the IC50 in experiment [1] is 2 nM; in experiment [2], 0.7 nM.
The like results for `CCn1cc(Nc2nc(N[C@@H]3CCCN(C(=O)/C(C#N)=C/C4CC4)C3)c3cn[nH]c3n2)cn1` [Example 175, (R,E)-3-cyclopropyl-2-(3-((6-((1-ethyl-1H-pyrazol-4-yl)amino)-1H-pyrazolo[3,4-d]pyrimidin-4-yl)amino)piperidine-1-carbonyl)acrylonitrile] were, in that order, 1.4 nM and 14.9 nM.
The like results for `CCn1cc(Nc2nc(S[C@@H]3CCCN(C(=O)/C(C#N)=C/C4CC4)C3)c3cn[nH]c3n2)cn1` [Example 176, (R,E)-3-cyclopropyl-2-(3-((6-((1-ethyl-1H-pyrazol-4-yl)amino)-1H-pyrazolo[3,4-d]pyrimidin-4-yl)thio)piperidine-1-carbonyl)acrylonitrile] were, in that order, 3 nM and 42.1 nM.
In the case of `CCn1cc(Nc2nc(N[C@@H]3CCCN(C(=O)/C(C#N)=C/C4CC4)C3)c3c(Cl)c[nH]c3n2)cn1` [Example 177, (R,E)-2-(3-((5-chloro-2-((1-ethyl-1H-pyrazol-4-yl)amino)-7H-pyrrolo[2,3-d]pyrimidin-4-yl)amino)piperidine-1-carbonyl)-3-cyclopropylacrylonitrile], the figures for the IC50 in experiment [1] and in experiment [2] were 1.2 nM and 0.4 nM, respectively.
The like results for `CCn1cc(Nc2nc(N[C@@H]3CCCN(C(=O)/C(C#N)=C/C(C)C)C3)c3c(Cl)c[nH]c3n2)cn1` [Example 178, (R,E)-2-(3-((5-chloro-2-((1-ethyl-1H-pyrazol-4-yl)amino)-7H-pyrrolo[2,3-d]pyrimidin-4-yl)amino)piperidine-1-carbonyl)-4-methylpent-2-enenitrile] were, in that order, 0.9 nM and 0.5 nM.
The corresponding values for `CCn1cc(Nc2nc(S[C@@H]3CCCN(C(=O)/C(C#N)=C/C4CC4)C3)c3c(Cl)c[nH]c3n2)cn1` [Example 179] are 8.3 nM and 1.1 nM.

(Values after patent EP3478687B1 (Daewoong Pharmaceutical Co., Ltd., priority 2016, dated 2018).)
